In patent US20130123254A1, “PHARMACEUTICALLY ACCEPTABLE MGLUR5 POSITIVE ALLOSTERIC MODULATORS AND THEIR METHODS OF IDENTIFICATION” (priority 2011, published 2013):

Experiments:
human mGlu5a receptor [1] = molecular target: T1, human mGlu5a receptor (Homo sapiens, UniProt P41594); assay: Shift factor in Ca2+ mobilization assay (human); type: cell-based; conditions: shift factor = EC50(glutamate)/EC50(glutamate + test compound)
T1 construct: expressed in transfected cells
Experimental: A monoclonal HEK-293 cell line stably transfected with a cDNA encoding for the human mGlu5a receptor was generated; for the work with mGlu5 Positive Allosteric Modulators (PAMs), a cell line with low receptor expression levels and low constitutive receptor activity was selected to allow the differentiation of agonistic versus PAM activity. Cells were cultured according to standard protocols (Freshney, 2000) in Dulbecco's Modified Eagle Medium with high glucose supplemented with 1 mM glutamine, 10% (vol/vol) heat-inactivated bovine calf serum, Penicillin/Streptomycin, 50 μg/ml hygromycin and 15 μg/ml blasticidin (all cell culture reagents and antibiotics from Invitrogen, Basel, Switzerland).
About 24 hrs before an experiment, 5×10^4 cells/well were seeded in poly-D-lysine coated, black/clear-bottomed 96-well plates. The cells were loaded with 2.5 μM Fluo-4AM in loading buffer (1×HBSS, 20 mM HEPES) for 1 hr at 37° C. and washed five times with loading buffer. The cells were transferred into a Functional Drug Screening System 7000 (Hamamatsu, Paris, France), and 11 half logarithmic serial dilutions of test compound at 37° C. were added and the cells were incubated for 10-30 min. with on-line recording of fluorescence. Following this pre-incubation step, the agonist L-glutamate was added to the cells at a concentration corresponding to EC20 (typically around 80 μM) with on-line recording of fluorescence; in order to account for day-to-day variations in the responsiveness of cells, the EC20 of glutamate was determined immediately ahead of each experiment by recording of a full dose-response curve of glutamate.
(§1) The shift factor is calculated for a specific concentration of the test compound according to the equation: Shift factor=EC50(glutamate)/EC50(glutamate+×uM test compound).
(§2) On the same 96-well plate a serial dilution of glutamate is added to a) cells previously incubated for 10-30 min. with a fixed concentration of an mGlu5 PAM test compound and b) cells not incubated with mGlu5 PAM test compound. The peak fluorescence signals obtained from cells with or without pre-incubation with mGlu5 PAM test compound is plotted as illustrated, and the two EC50 values are derived from the plot. The shift factor is specific for the concentration of the test compound used and calculated as follows: Shift factor=ECM50(glutamate)/EC50(glutamate+×μM test compound).

human mGlu5a receptor [2] = molecular target: T1, human mGlu5a receptor; assay: Intracellular Ca2+ mobilization assay, PAM EC50 and efficacy at EC20 of L-glutamate; type: cell-based; conditions: maximal response relative to saturating L-glutamate, FIGS. 4 and 5
Body temperature test = type: in vivo; conditions: rat, body temperature at 2 h, read-out: BT test MED (rat)
Experimental: Principle: Evaluation of the effect of a compound on core body temperature at a 2-h interval in the rat.
The temperature decrease in rats upon administration of mGluR5 negative allosteric modulators (antagonists) is well documented Warty & al.; Psychopharmacology (2005) 179: 207-217 (DOI 10.1007/s00213-005-2143-4)).
Male Sprague Dawley Rats (OFA-SD, Charles River, ˜250 g) are weighed and isolated for at least 30 min before compound injection in type II Makrolon cages. Before injection of the mGlu5 PAM compound, rectal body temperature is measured with a thermometer with a special rat probe for ˜20 s. The probe is dipped in glycerin before each use. Immediately after compound administration, rats are placed back in the type 2 cage. After 2 hours, the body temperature of each rat is measured again. The difference in absolute body temperature as well as the temperature difference delta T2-T0 between vehicle and compound injected rats is analysed.

[3] = HTD/LTD dose, tolerability in rat; conditions: for HTD/LTD Dose (rat) (observation): observation at the HTD/LTD dose
mGlu5 receptor = molecular target: T2, mGlu5 receptor (Rattus norvegicus, UniProt P31424); assay: Shift factor in Ca2+ mobilization assay (rat); type: cell-based
T2 construct: expressed in transfected cells
T2 sequence (P31424 21-1203): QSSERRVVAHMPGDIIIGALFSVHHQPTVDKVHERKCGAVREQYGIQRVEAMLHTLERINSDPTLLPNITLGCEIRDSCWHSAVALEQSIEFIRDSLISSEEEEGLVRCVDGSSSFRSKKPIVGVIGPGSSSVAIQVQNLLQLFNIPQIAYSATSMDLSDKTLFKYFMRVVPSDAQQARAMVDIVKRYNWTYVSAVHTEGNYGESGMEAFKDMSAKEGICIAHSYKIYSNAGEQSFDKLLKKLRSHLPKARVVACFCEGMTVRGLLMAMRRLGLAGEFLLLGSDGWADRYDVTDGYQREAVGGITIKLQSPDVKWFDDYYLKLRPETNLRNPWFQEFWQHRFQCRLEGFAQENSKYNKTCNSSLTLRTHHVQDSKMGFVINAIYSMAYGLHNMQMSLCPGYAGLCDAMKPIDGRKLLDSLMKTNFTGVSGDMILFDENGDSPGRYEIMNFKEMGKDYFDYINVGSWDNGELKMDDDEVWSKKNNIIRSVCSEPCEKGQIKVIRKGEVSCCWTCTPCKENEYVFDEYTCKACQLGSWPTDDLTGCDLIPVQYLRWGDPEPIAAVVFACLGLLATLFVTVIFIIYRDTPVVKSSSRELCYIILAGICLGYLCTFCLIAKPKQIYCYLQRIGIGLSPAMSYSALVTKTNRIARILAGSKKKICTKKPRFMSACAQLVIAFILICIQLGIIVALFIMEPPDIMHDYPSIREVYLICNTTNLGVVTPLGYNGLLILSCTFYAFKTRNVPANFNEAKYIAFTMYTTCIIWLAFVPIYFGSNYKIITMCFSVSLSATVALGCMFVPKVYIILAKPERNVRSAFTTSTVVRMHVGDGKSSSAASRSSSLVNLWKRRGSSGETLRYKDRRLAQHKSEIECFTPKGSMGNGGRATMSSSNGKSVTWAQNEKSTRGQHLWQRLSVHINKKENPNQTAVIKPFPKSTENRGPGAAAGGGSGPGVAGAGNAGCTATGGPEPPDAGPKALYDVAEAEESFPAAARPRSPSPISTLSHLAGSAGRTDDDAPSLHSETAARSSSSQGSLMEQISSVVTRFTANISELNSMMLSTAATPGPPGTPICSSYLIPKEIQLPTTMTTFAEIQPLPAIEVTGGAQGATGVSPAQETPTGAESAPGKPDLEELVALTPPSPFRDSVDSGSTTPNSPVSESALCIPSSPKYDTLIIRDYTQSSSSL
Experimental: as §1, §2

T1 sequence (P41594 21-1180 isoform P41594-2 limits assumed): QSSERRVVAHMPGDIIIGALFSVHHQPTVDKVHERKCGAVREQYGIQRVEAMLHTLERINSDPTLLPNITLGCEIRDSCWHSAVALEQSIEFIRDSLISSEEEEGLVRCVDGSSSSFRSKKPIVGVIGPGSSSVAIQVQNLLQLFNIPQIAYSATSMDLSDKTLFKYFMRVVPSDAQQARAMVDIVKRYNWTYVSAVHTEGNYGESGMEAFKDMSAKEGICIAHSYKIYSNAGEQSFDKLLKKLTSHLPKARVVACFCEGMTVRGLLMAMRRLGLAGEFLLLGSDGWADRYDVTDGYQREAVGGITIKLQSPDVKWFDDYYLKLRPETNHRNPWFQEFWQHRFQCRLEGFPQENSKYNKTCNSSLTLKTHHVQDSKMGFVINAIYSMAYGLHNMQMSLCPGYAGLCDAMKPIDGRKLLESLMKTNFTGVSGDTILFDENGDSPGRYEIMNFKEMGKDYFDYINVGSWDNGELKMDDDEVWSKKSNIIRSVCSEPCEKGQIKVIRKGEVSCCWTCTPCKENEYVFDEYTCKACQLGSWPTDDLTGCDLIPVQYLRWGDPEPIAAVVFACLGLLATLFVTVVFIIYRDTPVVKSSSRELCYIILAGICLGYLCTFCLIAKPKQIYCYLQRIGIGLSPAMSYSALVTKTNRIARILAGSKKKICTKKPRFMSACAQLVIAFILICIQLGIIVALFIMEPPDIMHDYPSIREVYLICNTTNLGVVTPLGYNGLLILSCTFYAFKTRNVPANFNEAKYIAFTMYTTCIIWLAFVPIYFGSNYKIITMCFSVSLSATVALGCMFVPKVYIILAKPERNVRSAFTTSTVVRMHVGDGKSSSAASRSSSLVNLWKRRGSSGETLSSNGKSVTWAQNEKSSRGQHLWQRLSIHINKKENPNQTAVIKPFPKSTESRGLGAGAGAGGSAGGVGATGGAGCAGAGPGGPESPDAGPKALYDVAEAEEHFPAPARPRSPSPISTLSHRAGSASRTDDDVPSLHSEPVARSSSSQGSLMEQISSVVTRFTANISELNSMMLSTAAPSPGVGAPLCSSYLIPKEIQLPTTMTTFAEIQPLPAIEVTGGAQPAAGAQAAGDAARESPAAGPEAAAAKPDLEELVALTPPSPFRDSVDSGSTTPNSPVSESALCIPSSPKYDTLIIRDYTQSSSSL

Row | Structure (SMILES) | Shift (hum, 10 uM) (human mGlu5a receptor [1]) | efficacy (human mGlu5a receptor [2]) | minimal effective dose (Body temperature test) [mg/kg] | HTD/LTD Dose (rat) [3] [mg/kg] | HTD/LTD Dose (rat) (observation) [3] | Shift (rat, 10 uM) (mGlu5 receptor)
1 | CC1(C)CC(=O)N(c2ccc(C#Cc3cccc(F)c3)cn2)N1 [Example 1] | 1.75 | low efficacy | 0.3 | 100 | well tolerated | 1.44
2 | CN1C(=O)N(c2ccc(C#Cc3ccccc3)cn2)[C@@H]2CCC[C@@H]21 [Example 2] | 1.02 |  | 0.1 | 100 | well tolerated | 0.88
3 | CN1C(=O)N(c2ccc(C#Cc3cccc(F)c3)cn2)[C@@H]2CCC[C@@H]21 [Example 3] | 0.87 |  | 0.1 | 100 | well tolerated | 0.82
4 | CN1C(=O)N(c2ccc(C#Cc3ccccc3)nn2)[C@@H]2CCC[C@@H]21 [Example 4] | 2.46 |  | 0.1 | 100 | well tolerated | 1.70
5 | CN1C(C)(C)CN(c2ccc(C#Cc3ccccc3)cn2)S1(=O)=O [Example 5] | 2.02 |  | 0.3 | 100 | well tolerated | 1.66
6 | CC1(C)CN(c2ccc(C#Cc3cccc(F)c3)cn2)C(=O)O1 [Example 6] | 1.40 |  | 0.3 | 100 | well tolerated | 1.90
7 | CN1C(=O)N(c2ncc(C#Cc3ccc(F)cc3)cn2)CC1(C)C [Example 7] | 2.44 |  | 0.3 | 100 | well tolerated | 1.80
8 | CN1C(=O)N(c2ccc(C#Cc3cncc(Cl)c3)cn2)CC1(C)C [Example 8] | 3.60 |  | 1 | 100 | well tolerated | 2.28
9 | CC1(C)CN(c2ccc(C#Cc3ccccc3)cn2)C(=O)O1 [Example 9] | 1.70 |  | 1 | 30 | well tolerated | 2.63
10 | CO[C@@H]1C(=O)N(c2ncc(C#Cc3cccc(F)c3)cn2)CC1(C)C [Example 10] | 3.46 |  | 0.3 | 100 | well tolerated | 2.62
11 | CN(C(=O)c1ncc(C#Cc2cccc(F)c2)cn1)C(C)(C)C [Example 11] | 2.06 |  | 0.1 | 100 | well tolerated | 1.86
12 | CN(C(=O)c1ccc(C#Cc2cc(F)ccc2F)cn1)C(C)(C)C [Example 12] | 1.86 |  | 0.1 | 100 | well tolerated | 1.62
13 | CC1(C)CCN(c2ccc(C#Cc3cccc(Cl)c3)cn2)C(=O)C1 [Example 13] | 4.74 |  | 0.1 | 100 | seizures | 3.92
14 | CN1C(=O)N(c2ccc(C#Cc3ccccc3)cn2)CC1(C)C [Example 14] |  |  | 0.3 | 3 |  | 
15 | CC1(C)CCN(c2ccc(C#Cc3ccccc3)cn2)C(=O)O1 [Example 15] | 9.73 | high efficacy | 0.1 | 3 | seizures | 7.67
16 | C(#Cc1cnc2nc(N3CCOCC3)nn2c1)c1ccccc1 [Example 16] | 12.13 |  | 3 | 10 | seizures | 11.31
17 | CC1(C)CCN(c2ccc(C#Cc3ccccc3)cn2)C(=O)C1 [Example 17] | 15.95 |  | 0.1 | 100 | seizures | 12.93
